Values after ≈ are worked out from the molar mass of the structure shown. “Also recorded” adds a separate entry of the source.
Tests used:
[1] = Aqueous kinetic solubility; type: physicochemical; details: for solubility at 2 h: aqueous buffer, kinetic from dmso stock, free form, deionized water pH 7.4, 1% DMSO
Protocol: The aqueous kinetic solubility was determined by preparing a 20 mM DMSO stock solution of test compounds and incubating an aliquot of this solution in deionized water at pH 7.4 to set a 1% final concentration of DMSO. In the case of HCl salt compounds, 1–2 mg of compound was weighed and dissolved in deionized water to yield an approximately 10 mg/mL solution. After initial mixing using brief vortexing and sonication, samples were equilibrated by shaking for 2 h at room temperature. Suspensions or solutions with visible particles were filtered through 0.22 µm PVDF membrane filters. The dissolved drug concentration was analyzed using UPLC-MS. To determine the solubility of the HCl salt, 1 mg of compound was weighed into a 2 mL glass tube, and a fixed volume of deionized water was added to yield an approximately 10 mg/mL solution. The solution was equilibrated by shaking for 24 h at room temperature. After equilibration, the vials were visually examined. If a clear solution was obtained, solubility was reported as >mg/mL.

MAC strains = test: MIC by REMA, summary statements for MAC strains; type: cell-based, Mycobacterium avium complex; details: Mycobacterium avium; range over tested MAC strains (Table 2); read-out: in vitro MIC for the tested MAC strains
M. avium in murine BMDMs = test: Intracellular anti-MAC activity in infected BMDMs, M. avium; type: cell-based, Mycobacterium avium; details: M. avium ATCC 700898, 10 µg/mL, 72 hr
Protocol: (§1) BMDMs were obtained from 6-week-old female BALB/c mice. Bone marrow cells were differentiated into BMDMs using Dulbecco’s Modified Eagle Medium (Biowest) supplemented with 10% fetal bovine serum (Biowest) and 10% L929 cell supernatant as previously described ([58]).
(§2) BMDMs were seeded at 4 × 10^5 cells/mL in a 48-well plate and incubated overnight at 37°C. MAC strains were infected at a multiplicity of infection of 3 for 4 h and washed with DPBS twice. The cells were then cultured in the absence or presence of drugs in triplicate wells for 72 h. After incubation, the cells were lysed with 0.05% Triton X-100, and the cell lysates serially diluted with DPBS were spotted on 7H10 agar plates supplemented with OADC to count the number of viable bacteria. Colonies were enumerated after 7 d of incubation at 37°C, and the values are reported as the mean CFU ± standard deviation (SD) per mL. All experiments were repeated at least three times independently.

[2] = tested on: M. intracellulare in murine BMDMs; test: Intracellular anti-MAC activity in infected BMDMs, M. intracellulare; type: cell-based, Mycobacterium intracellulare; details: M. intracellulare ATCC 13950, 10 µg/mL, 72 hr
Protocol: as §1, §2

MAC in murine BMDMs [3] = test: Intracellular anti-MAC activity in infected BMDMs, summary statements for MAC; type: cell-based, Mycobacterium avium complex; details: for intracellular growth of MAC in BMDMs: MAC-infected BMDMs, 72 h (Fig. 2)
Protocol: as §1, §2

BMDMs = test: Cell cytotoxicity test (trypan blue cell counting); type: cell-based, BALB/c mice; details: 20 µg/mL, overnight incubation (Fig. S4)
Protocol: as §1
Cell viability was evaluated using trypan blue cell counting. BMDMs were plated at 4 × 10^5 cells/mL along with antibiotics in a 48-well cell culture plate. The antibiotics were serially diluted twofold from the highest concentration of 20 μg/mL to 1.25 μg/mL. After overnight incubation at 37°C with 5% CO2, BMDMs were isolated, and viable cells were counted using trypan blue dye exclusion. Cell viability was calculated as a percentage compared to the control. All experiments were repeated at least three times independently.

M. avium = test: MIC by resazurin microtiter assay (REMA), M. avium strains
Protocol: (§4) Reference strains were purchased from the American Type Culture Collection (ATCC; Manassas, VA, USA). […] All strains were cultivated in Middlebrook 7H9 liquid broth (Difco Laboratories, Detroit, MI) supplemented with 10% oleic acid-albumin-dextrose-catalase (OADC) or plated on Middlebrook 7H10 agar (Difco Laboratories) with 10% OADC enrichment at 37°C.
(§5) The MICs of all the reagents were determined using the REMA method based on guidelines by the Clinical and Laboratory Standards Institute ([57]). […] The cultures were diluted to an OD600 = 0.001 in 7H9 broth with 5% OADC. […] Two controls (broth only and bacteria only) were incubated to check for other contamination (broth only) and the growth of tested bacteria (bacteria only).

M. intracellulare = test: MIC by resazurin microtiter assay (REMA), M. intracellulare strains
Protocol: as §4, §5

MAC in murine BMDMs [4] = tested on: MAC in murine BMDMs; design: method as in PMID 33519787; details: cited from earlier work
[5] = tested on: macrolide-resistant M. avium clinical isolates in BMDMs; test: Intracellular activity in BMDMs, macrolide-resistant M. avium clinical isolates; type: cell-based, Mycobacterium avium; details: five macrolide-resistant M. avium clinical isolates, 10 µg/mL, 72 h (Fig. 5)
Protocol: as §1, §2

M. avium ATCC 700898 = details: synergism FICI ≤0.5, additive 0.5 < FICI ≤ 1, indifferent 1 < FICI ≤ 4, antagonistic FICI >4
Protocol: (§3) To evaluate the efficacy of the combination of agent A and agent B, a fractional inhibitory concentration (FIC) index was calculated as follows: FICI = (FIC of agent A) + (FIC of agent B) = (MIC of agent A in combination/MIC of agent A alone) + (MIC of agent B in combination/MIC of agent B alone). Synergism is defined as FICI ≤0.5, additive as 0.5 < FICI ≤ 1, indifferent as 1 < FICI ≤ 4, and antagonistic as FICI >4. The cultured bacteria were diluted to a 0.005 OD600 in 7H9 broth containing 5% OADC, and the antimicrobial agents were prepared by serial dilutions to a final concentration of 0.03–4 μg/mL. For the evaluation of inhibitory concentrations, the plates were incubated at 37°C for 5–7 d. Then, MIC values were assessed by REMA, and the FICI was calculated.

[6] = tested on: M. intracellulare ATCC 13950; details: synergism FICI ≤0.5, additive 0.5 < FICI ≤ 1, indifferent 1 < FICI ≤ 4, antagonistic FICI >4
Protocol: as §3

[7] = tested on: macrolide-resistant M. avium; test: MIC by REMA, macrolide-resistant M. avium strains
Description: (§6) Reference strains were purchased from the American Type Culture Collection (ATCC; Manassas, VA, USA). All clinical MAC isolates, including macrolide-susceptible and macrolide-resistant strains, were kindly provided by Samsung Medical Center (SMC; Seoul, South Korea) and Asan Medical Center (AMC; Seoul, South Korea). All strains were cultivated in Middlebrook 7H9 liquid broth (Difco Laboratories, Detroit, MI) supplemented with 10% oleic acid-albumin-dextrose-catalase (OADC) or plated on Middlebrook 7H10 agar (Difco Laboratories) with 10% OADC enrichment at 37°C.
as §5
(§7) PCR amplification and sequencing for CLR were based on 23S rRNA. The primers and PCR conditions were as reported previously ([59]). PCR was carried out in a final volume of 20 µL and contained EzPCR Basic 5 × premix (ELPIS, Daejeon, South Korea), 13 µL of sterile dH2O, 1 µL of each forward and reverse primer, and 1 µL of template DNA. The PCR products were run on 1% agarose gels and purified using a NEXprep Gel/PCR Purification Mini Kit (Geneslabs, Gyeonggi, South Korea) for DNA cleanup. Purified PCR products were sequenced by Sanger sequencing in Bionics (Seoul, South Korea) with their gene-specific forward and reverse primers. Sequences obtained from Bionics were subjected to BLAST searches to compare nucleotide sequences with reference strains.

[8] = tested on: macrolide-resistant M. intracellulare; test: MIC by REMA, macrolide-resistant M. intracellulare strains; details: Mycobacterium intracellulare
Description: as §6, §5, §7

[9] = Mycobacterium avium, ATCC700898
[10] = Mycobacterium intracellulare, ATCC13950, M. intracellulare (ATCC 13950), reference strain
[11] = Mycobacterium intracellulare, M. intracellulare (SMC#8)
[12] = Mycobacterium intracellulare, M. intracellulare (SMC#12)
[13] = Mycobacterium intracellulare, M. intracellulare (SMC#699)

C/C=C(\NC(=O)c1csc(-c2csc(-c3ccc4c(n3)-c3csc(n3)[C@H]([C@@H](C)O)NC(=O)c3csc(n3)[C@H](C(C)C)NC(=O)c3csc(n3)/C(=C/C)NC(=O)[C@H]([C@@H](C)O)NC(=O)c3csc-4n3)n2)n1)C(=O)NCC(C)=O [MP2, micrococcin P2, reference compound]
solubility at 2 h [1]: 0.07 µg/mL (≈ 0.0613 µM)
MIC (MAC strains): 0.125 to 0.5 µg/mL (≈ 0.109 to 0.438 µM)
intracellular activity (CFU) in BMDMs (M. avium in murine BMDMs): ineffective
intracellular activity (CFU) in BMDMs [2]: ineffective
intracellular growth of MAC in BMDMs (MAC in murine BMDMs [3]): completely abrogated
Cell viability (BMDMs): decreased
MIC (M. avium; M. avium (SMC#6)): 0.125 µg/mL (≈ 0.109 µM)
MIC (M. avium; M. avium (SMC#7)): 0.125 µg/mL (≈ 0.109 µM)
MIC (M. avium; M. avium (SMC#1637)): 0.125 µg/mL (≈ 0.109 µM)
MIC (M. avium; Mycobacterium avium): 0.125 µg/mL (≈ 0.109 µM)
MIC (M. avium; [9]): 0.125 µg/mL (≈ 0.109 µM)
MIC (M. intracellulare; [10]): 0.125 µg/mL (≈ 0.109 µM)
MIC (M. intracellulare; Mycobacterium intracellulare, M. intracellulare (SMC#7)): 0.125 µg/mL (≈ 0.109 µM)
MIC (M. intracellulare; [11]): 0.125 µg/mL (≈ 0.109 µM)
MIC (M. intracellulare; Mycobacterium intracellulare, M. intracellulare (SMC#9)): 0.125 µg/mL (≈ 0.109 µM)
MIC (M. intracellulare; [12]): 0.125 µg/mL (≈ 0.109 µM)
MIC (M. intracellulare; [13]): 0.125 µg/mL (≈ 0.109 µM)
MIC (M. intracellulare; Mycobacterium intracellulare, M. intracellulare (SMC#831)): 0.125 µg/mL (≈ 0.109 µM)
MIC (M. intracellulare; Mycobacterium intracellulare, M. intracellulare (SMC#2087)): 0.125 µg/mL (≈ 0.109 µM)

CO[C@H]1/C=C/O[C@@]2(C)Oc3c(C)c(O)c4c(O)c(c(/C=N/N5CCN(C)CC5)c(O)c4c3C2=O)NC(=O)/C(C)=C\C=C\[C@H](C)[C@H](O)[C@@H](C)[C@@H](O)[C@@H](C)[C@H](OC(C)=O)[C@@H]1C [rifampicin]
intracellular activity against MAC (MAC in murine BMDMs [4]): little intracellular activity

C/C=C1\NC(=O)[C@H]([C@@H](C)O)NC(=O)c2csc(n2)-c2ccc(-c3nc(-c4nc(C(=O)NC5(C(=O)NCCCN6CCOCC6)CC5)cs4)cs3)nc2-c2csc(n2)[C@H]([C@@H](C)O)NC(=O)c2csc(n2)[C@H](C(C)C)NC(=O)c2csc1n2 [AJ-037]
solubility at 2 h [1]: 103 µg/mL (≈ 84.9 µM)
Fold increase, HCl salt ([1]; solubility of HCl salt compared to MP2): ×71,428 fold
Fold increase, Free form ([1]; solubility of free form compared to MP2): ×1,471 fold
solubility ([1]; thermodynamic from solid, HCl salt in deionized water): 5000 µg/mL
intracellular growth of MAC in BMDMs (MAC in murine BMDMs [3]): remarkably inhibited the intracellular growth of MAC to a similar degree as CLR; also recorded: significantly reduced the number of MAC CFUs inside macrophages
intracellular activity in BMDMs infected with macrolide-resistant MAC clinical isolates (MAC in murine BMDMs [3]; macrolide-resistant MAC, 10 µg/mL, 72 h (Fig. 5 and 6)): significant decrease in CFUs
intracellular bacterial growth in BMDMs [5]: notably inhibited intracellular bacterial growth
drug-drug interaction with CLR (M. avium ATCC 700898): strongest synergistic effect; also recorded: Synergistic effects
drug-drug interaction with CLR [6]: relatively weak but synergistic effect; also recorded: Synergistic effects
Cell viability (BMDMs): decreased
MIC ([7]; M. avium (SMC#1216), 23S rRNA A2058/A2059 C/A): 0.125 µg/mL (≈ 0.103 µM)
MIC ([7]; Mycobacterium avium): 0.125 µg/mL (≈ 0.103 µM)
MIC ([7]; Mycobacterium avium, M. avium (SMC#420), 23S rRNA A2058/A2059 C/A): 0.5 µg/mL (≈ 0.412 µM)
MIC ([7]; Mycobacterium avium, M. avium (SMC#422), 23S rRNA A2058/A2059 A/G): 1 µg/mL (≈ 0.824 µM)
MIC ([7]; Mycobacterium avium, M. avium (SMC#1213), 23S rRNA A2058/A2059 T/A): 0.5 µg/mL (≈ 0.412 µM)
MIC (M. avium; M. avium (SMC#7)): 0.25 µg/mL (≈ 0.206 µM)
MIC (M. avium; Mycobacterium avium): 0.25 µg/mL (≈ 0.206 µM)
MIC (M. avium; [9]): 0.25 µg/mL (≈ 0.206 µM)
MIC (M. avium; Mycobacterium avium, M. avium (SMC#6)): 0.125 µg/mL (≈ 0.103 µM)
MIC (M. avium; Mycobacterium avium, M. avium (SMC#1637)): 0.125 µg/mL (≈ 0.103 µM)
MIC ([8]; M. intracellulare (AMC#24), 23S rRNA A2058/A2059 G/A): 0.125 µg/mL (≈ 0.103 µM)
MIC ([8]; M. intracellulare (SMC#104), 23S rRNA A2058/A2059 G/A): 0.125 µg/mL (≈ 0.103 µM)
MIC ([8]; M. intracellulare (SMC#414), 23S rRNA A2058/A2059 A/G): 0.125 µg/mL (≈ 0.103 µM)
MIC (M. intracellulare; M. intracellulare (SMC#9)): 0.125 µg/mL (≈ 0.103 µM)
MIC (M. intracellulare; M. intracellulare (SMC#831)): 0.125 µg/mL (≈ 0.103 µM)
MIC (M. intracellulare; M. intracellulare (SMC#2087)): 0.125 µg/mL (≈ 0.103 µM)
MIC (M. intracellulare; Mycobacterium intracellulare): 0.125 µg/mL (≈ 0.103 µM)
MIC (M. intracellulare; [10]): 0.25 µg/mL (≈ 0.206 µM)
MIC (M. intracellulare; [11]): 0.25 µg/mL (≈ 0.206 µM)
MIC (M. intracellulare; [12]): 0.25 µg/mL (≈ 0.206 µM)
MIC (M. intracellulare; [13]): 0.25 µg/mL (≈ 0.206 µM)

Source: PMC10580953, “In vitro and intracellular activities of novel thiopeptide derivatives against macrolide-susceptible and macrolide-resistant Mycobacterium avium complex” (Microbiology Spectrum, 2023)
